The values that follow come from patent US10617736B2, “Method for modulating insulin-independent glucose transport using teneurin C-terminal associated peptide (TCAP)” (priority 2014, dated 2020).

Holding throughout (assay type): cell-based, mouse
In test [1] the test system is mHypoE-38 neurons. The experiment in a line: 3H-2-deoxyglucose uptake in mHypoE-38 hypothalamic neurons. Particulars: Hypo-E38 cells, potassium-free media (FIG. 11F, G).
Test [2] deals with C2C12 myocytes. Kind of test: 3H-2-deoxyglucose uptake in C2C12 myocytes. The settings on record: 100 nM. How it is done:
The effect of TCAP-1 on glucose uptake in muscle cells was examined in a C2C12 mouse myocyte cell line. C2C12 myocytes were cultured in Dulbecco's Modified Eagle Medium (DMEM) containing 4500 mg/L D-glucose, L-glutamine, and 25 mM HEPES buffer, without sodium pyruvate or phenol red (Gibco, Cat. No. 21063029), supplemented with 20% heat-inactivated fetal bovine serum (FBS), 100 U/ml penicillin and 100 μg/ml streptomycin. Cells were maintained at 80% confluency at 37° C. in a humidified CO2 incubator. To initiate differentiation, myocytes were further cultured in DMEM supplemented with 10% heat-inactivated horse serum (HS), transferrin, 100 U/ml penicillin and 100 μg/ml streptomycin. Myocytes were allowed to differentiate into multi-nucleated myotubes for 5 days before experimentation. 24 hours prior to experimentation, medium was changed. At day 5 of differentiation, cells were deprived of serum and incubated in Minimal Essential Medium containing 1000 mg/L D-glucose, L-glutamine, without nucleosides (Gibco, Cat. No. 12561049) for 5 hours at 37° C. prior to incubation with insulin, TCAP-1, or saline. Cells were washed twice in glucose-free HEPES-buffered solution (HBS), containing 140 mM NaCl, 20 mM HEPES, 5 mM KCl, 2.5 mM MgSO4 and 1 mM CaCl2, followed by determinations of transport of 3H-2-deoxyglucose for 10 minutes at 0.5 μCi/ml at room temperature. Uptake of 3H-2-deoxyglucose was stopped immediately after 10 minutes with three washes of ice-cold 0.9% NaCl solution. Parallel experiments with 5 μM of cytochalasin B were done to ensure that glucose uptake was of transporter-inhibitable transport The cells were digested with 1 ml of 0.05 N NaOH. Cell lysates were used for determination of radioactivity by a beta liquid scintillation counter. Experiments were repeated three times with 3 wells per condition per replication. […] Cell lysates were used for determination of radioactivity by a beta liquid scintillation counter. […]

Test [3] deals with mHypoE-38 neurons. The experiment in a line: 3H-2-deoxyglucose uptake in mHypoE-38 hypothalamic neurons. How it is done:
The effect of TCAP-1 on glucose uptake in brain cells was examined in immortalized […] hypothalamic cells. Immortalized mHypoE-38 hypothalamic embryonic mouse neurons (gift from Dr. Denise Belsham, University of Toronto) were grown in Dulbecco's Modified Eagle Medium (DMEM) containing 4500 mg/L D-glucose, L-glutamine, and 25 mM HEPES buffer, without sodium pyruvate or phenol red (Gibco, Cat. No. 21063029), supplemented with 5% heat-inactivated fetal bovine serum (FBS), 100 U/ml penicillin and 100 μg/ml streptomycin. Cells were maintained at 60-70% confluency at 37° C. in a humidified CO2 incubator. To passage, cells were washed once in sterile PBS, trypsinized and seeded at a density of 100,000 cells per 3.5 cm plate and allowed to grow for 2-3 days. 24 hours prior to experimentation, medium was changed. mHypoE-38 hypothalamic cells were grown in 6-well tissue culture dishes (Corning Incorporated, Cat. No. 3516) at a seeding density of200 000 cells/9.5 cm^2 well in a 37° C. normoxic incubator. Cultures were grown for 36 hours to 85% confluence prior to experimentation. At day 3 post-plating, cells were washed twice with Locke's buffer (154 mM NaCl, 5.6 mM KCl, 2.3 mM CaCl2, 3.6 mM NaHCO3, 5 mM HEPES) without serum and glucose. The culture was incubated in the Locke's buffer for 1 hour at 37° C. followed by exposure to 100 nM insulin, 100 nM TCAP-1, 100 nM SC-TCAP-1, or saline. KCl (40 mM) and […] (0.5 μCi/ml) were added to culture 5 minutes before termination of treatment exposure. Uptake of ^3H-2-deoxyglucose was stopped immediately after 5 minutes with three washes of ice-cold 0.9% NaCl solution. Parallel experiments with 5 μM of cytochalasin B were performed to ensure that glucose uptake was of transporter-inhibitable transport. The cells were digested with 1 ml of 0.05 N NaOH at 0, 15, 30, 45, 60, 90 and 120 minutes after treatment. Cell lysates were used for determination of radioactivity by a beta liquid scintillation counter. Experiments were repeated three times with 3 wells pear condition per replication. […] hypothalamic cells were cultured as above and treated with 100 nM insulin, 100 nM TCAP-1 or saline, exposed to 5.6 mM or 40 mM KCl and 0.5 μCi/well 3H-2-deoxy glucose, and subsequently lysed with 50 mM NaOH. Radioactivity in cell lysates was counted using a liquid scintillation counter.

As to insulin, in test [1], the “3HDG uptake in potassium-free media” value was “decreased insulin-dependent glucose uptake to baseline levels”. Also, the 3H-2-deoxyglucose uptake stood at 332.321±87.296% in test [2] (90 minutes); 284.520±47.129% in test [2] (after 30 minutes); 91.423±5.226% in test [3] (100 nM, 5.6 mM KCl (low KCl)); 288.572±24.527% in test [3] (100 nM, 40 mM KCl exposure); 108.069±13.671 in test [3] (cells pretreated with MEK inhibitor (U0126) for 1 hour, 40 mM KCl); 162.846±1.813 in test [3] (non-MEK-inhibited cells, 40 mM KCl). Further, the “3H-2-deoxyglucose uptake value relative to baseline” value in test [3] (100 nM, 40 mM KCl, 45 minutes) was found to be 253±21.38%. In addition, the “3HDG uptake in whole cells over time” value in test [3] (Hypo-E38 cells (FIG. 11C-E)) is “uptake in 3HDGlucose within 30 min and remained high until after 60 min”.
